Experimental data published in US20230250088A1, “COMPOUNDS AND COMPOSITIONS FOR TREATING CONDITIONS ASSOCIATED WITH STING ACTIVITY” (IFM Due, Inc., priority 2020, published 2023).
Several values for one entry are separate records, joined by “and”; a condition that tells them apart may be missing. Equal entries are not always repeated.

Target: T1, hSTING (Homo sapiens, UniProt Q86WV6, G230A/H232R/R293Q/R71H)
T1 construct: host or cells: THP1-Dual KO-IFNAR2 cells
Assay: STING reporter assay (luciferase) in THP1-Dual KO-IFNAR2 cells activated with 2′3′cGAMP
Format: cell-based
Conditions: THP1-Dual KO-IFNAR2 cells; 2′3′cGAMP 15 μM final, Lipofectamine 2000; 24 h; luciferase reporter activity; read-out: hSTING EC50
Protocol: STING pathway activation by the compounds described herein was measured using THP1-Dual™ cells (KO-IFNAR2).
THP1-Dual™ KO-IFNAR2 Cells (obtained from invivogen) were maintained in RPMI, 10% FCS, 5 ml P/S, 2 mM L-glut, 10 mM Hepes, and 1 mM sodium pyruvate. Compounds were spotted in empty 384 well tissue culture plates (Greiner 781182) by Echo for a final concentration of 0.0017-100 μM. Cells were plated into the TC plates at 40 μL per well, 2×10E6 cells/mL. For activation with STING ligand, 2′3′cGAMP (MW 718.38, obtained from Invivogen), was prepared in Optimem media.
The following solutions were prepared for each 1×384 plate: • Solution A: 2 mL Optimem with one of the following stimuli: • 60 μL of 10 mM 2′3′cGAMP→150 μM stock • Solution B: 2 mL Optimem with 60 μL Lipofectamine 2000→Incubate 5 min at RT
2 mL of solution A and 2 ml Solution B was mixed and incubated for 20 min at room temperature (RT). 20 μL of transfection solution (A+B) was added on top of the plated cells, with a final 2′3′cGAMP concentration of 15 μM. The plates were then centrifuged immediately at 340 g for 1 minute, after which they were incubated at 37° C., 5% CO2, >98% humidity for 24h. Luciferase reporter activity was then measured. EC50 values were calculated by using standard methods known in the art.
Luciferase reporter assay: 10 μL of supernatant from the assay was transferred to white 384-plate with flat bottom and squared wells. One pouch of QUANTI-Luc™ Plus was dissolved in 25 mL of water. 100 μL of QLC Stabilizer per 25 mL of QUANTI-Luc™ Plus solution was added. 50 μL of QUANTI-Luc™ Plus/QLC solution per well was then added. Luminescence was measured on a Platereader (e.g., Spectramax I3X (Molecular Devices GF3637001)).
Luciferase reporter activity was then measured. EC50 values were calculated by using standard methods known in the art.

T1 sequence (Q86WV6 whole entry R71H/G230A/H232R/R293Q): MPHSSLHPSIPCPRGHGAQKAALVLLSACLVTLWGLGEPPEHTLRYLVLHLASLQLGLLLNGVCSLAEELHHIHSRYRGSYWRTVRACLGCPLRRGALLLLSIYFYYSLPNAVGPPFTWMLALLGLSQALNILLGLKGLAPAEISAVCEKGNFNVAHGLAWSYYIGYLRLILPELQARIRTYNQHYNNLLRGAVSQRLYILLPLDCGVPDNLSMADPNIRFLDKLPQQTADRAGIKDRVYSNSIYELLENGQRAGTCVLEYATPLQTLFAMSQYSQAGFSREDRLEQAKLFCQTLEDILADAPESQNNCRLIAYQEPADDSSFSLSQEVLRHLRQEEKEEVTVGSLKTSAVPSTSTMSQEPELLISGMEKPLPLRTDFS

`O=C(Nc1c[nH]c2cc(F)c(F)cc12)c1cc2ccc(Cl)cn2n1` [Compound 116, 6-chloro-N-(5,6-difluoro-1H-indol-3-yl)pyrazolo[1,5-a]pyridine-2-carboxamide] and `Cc1ccc2c(C(=O)Nc3c[nH]c4cc(F)c(F)cc34)cnn2c1` [Compound 104] fall in the same range of EC50: 200 to 1000 nM for the first, 200 to 1000 nM for the second.

`O=C(Nc1c[nH]c2cc(F)c(F)cc12)c1n[nH]c2nc(OCC(F)(F)F)ccc12` [Compound 129] and `O=C(Nc1c[nH]c2cc(F)c(F)cc12)c1n[nH]c2cc(OCC(F)(F)F)ncc12` [Compound 128] fall in the same range of EC50: 200 to 1000 nM for the first, 200 to 1000 nM for the second.

`O=C(Nc1c[nH]c2cc(F)c(F)cc12)c1cc2cccnc2s1` [Compound 112, N-(5,6-difluoro-1H-indol-3-yl)thieno[2,3-b]pyridine-2-carboxamide] and `O=C(Nc1c[nH]c2cc(F)c(F)cc12)c1cnc2cc(C(F)(F)F)ccn12` [Compound 105] fall in the same range of EC50: 1000 to 5000 nM for the first, 1000 to 5000 nM for the second.

`O=C(Nc1c[nH]c2cc(F)c(F)cc12)c1cccc2c1cnn2Cc1ccc(C(F)(F)F)cc1` [Compound 122] and `O=C(Nc1c[nH]c2cc(F)c(F)cc12)c1cccc2nn(Cc3ccc(C(F)(F)F)cc3)cc12` [Compound 121] fall in the same range of EC50: 200 to 1000 nM for the first, 200 to 1000 nM for the second.

First: CC(C)(C)OC(=O)N1CCCn2nc(C(=O)Nc3c[nH]c4cc(F)c(F)cc34)cc2C1 [Compound 114, tert-butyl 2-[(5,6-difluoro-1H-indol-3-yl)carbamoyl]-4H,5H,6H,7H,8H-pyrazolo[1,5-a][1,4]diazepine-5-carboxylate]
Second: CC(C)(C)OC(=O)N1CCn2nc(C(=O)Nc3c[nH]c4cc(F)c(F)cc34)cc2C1 [Compound 111, tert-butyl 2-[(5,6-difluoro-1H-indol-3-yl)carbamoyl]-4H,5H,6H,7H-pyrazolo[1,5-a]pyrazine-5-carboxylate]
The EC50 of the first is higher: 5000 to 100000 nM for the first, 1000 to 5000 nM for the second. The second is the more potent here.

`O=C(Nc1c[nH]c2ccc(Cl)cc12)c1n[nH]c2cc(OCC(F)(F)F)ccc12` [Compound 149] and `O=C(Nc1c[nH]c2ccccc12)c1n[nH]c2cc(OCC(F)(F)F)ccc12` [Compound 148, N-(1H-indol-3-yl)-6-(2,2,2-trifluoroethoxy)-1H-indazole-3-carboxamide] fall in the same range of EC50: 40 to 200 nM for the first, 40 to 200 nM for the second.

`O=C(Nc1c[nH]c2ccc(Cl)cc12)c1noc2cc(N3CCC(F)(F)CC3)ccc12` [Compound 147] and `O=C(Nc1c[nH]c2ccc(Cl)cc12)c1n[nH]c2cc(N3CCC(F)(F)CC3)ccc12` [Compound 146] fall in the same range of EC50: 40 to 200 nM for the first, 40 to 200 nM for the second.

`O=C(Nc1c[nH]c2cc(F)c(F)cc12)c1n[nH]c2nc(N3CCC(F)(F)CC3)ccc12` [Compound 154] and `O=C(Nc1c[nH]c2cc(F)c(F)cc12)c1n[nH]c2nc(N3CCC(F)(F)CC3)c(Cl)cc12` [Compound 152] fall in the same range of EC50: 200 to 1000 nM for the first, 200 to 1000 nM for the second.

Compared with `O=C(Nc1c[nH]c2cc(F)c(F)cc12)c1n[nH]c2cc(N3CCC(F)(F)CC3)ccc12` [Compound 155], `O=C(Nc1c[nH]c2ccc(Cl)cc12)c1n[nH]c2cc(N3CCC(F)(F)CC3)ncc12` [Compound 143, N-(5-chloro-1H-indol-3-yl)-6-(4,4-difluoropiperidin-1-yl)-1H-pyrazolo[4,3-c]pyridine-3-carboxamide] is higher in EC50: 40 to 200 nM for the first, 5000 to 100000 nM for the second. The first is the more potent here.

Compared with `Cn1nc2cc(C(F)(F)F)ccc2c1C(=O)Nc1c[nH]c2cc(F)c(F)cc12` [Compound 157], `Cn1nc(C(=O)Nc2c[nH]c3cc(F)c(F)cc23)c2ccc(C(F)(F)F)cc21` [Compound 158] is lower in EC50: 5000 to 100000 nM for the first, 200 to 1000 nM for the second.

`CCC1Cc2ccc(C(=O)Nc3c[nH]c4cc(F)c(F)cc34)cc2C1` (stereo not shown) [Compound 123] and `O=C(Nc1c[nH]c2cc(F)c(F)cc12)c1ccc2c(c1)OCCCO2` [Compound 124, N-(5,6-difluoro-1H-indol-3-yl)-3,4-dihydro-2H-benzo[b][1,4]dioxepine-7-carboxamide] fall in the same range of EC50: 200 to 1000 nM for the first, 200 to 1000 nM for the second.

First: O=C(Nc1c[nH]c2cc(F)c(F)cc12)c1c2ccccc2nn1Cc1ccc(C(F)(F)F)cc1 [Compound 101]
Second: O=C(Nc1c[nH]c2cc(F)c(F)cc12)c1c2ccccc2nn1CCC(F)(F)F [Compound 102]
The EC50 of the first is lower: 1000 to 5000 nM for the first, 5000 to 100000 nM for the second. The first is the more potent here.

First: O=C(Nc1c[nH]c2cc(F)c(F)cc12)c1n[nH]c2cc(OC(F)(F)F)ccc12 [Compound 118]
Second: O=C(Nc1c[nH]c2cc(F)c(F)cc12)c1n[nH]c2cc(OCC(F)(F)F)ccc12 [Compound 125]
The EC50 of the first is higher: 200 to 1000 nM for the first, 40 to 200 nM for the second. The second is the more potent here.

First: O=C(Nc1c[nH]c2ccc(Cl)cc12)c1n[nH]c2c1CN(Cc1ccc(C(F)(F)F)cc1)C2 [Compound 142, N-(5-chloro-1H-indol-3-yl)-5-(4-(trifluoromethyl)benzyl)-1,4,5,6-tetrahydropyrrolo[3,4-c]pyrazole-3-carboxamide]
Second: O=C(Nc1c[nH]c2cc(F)c(F)cc12)c1n[nH]c2c1CN(CC(F)(F)F)C2 [Compound 151]
The EC50 of the first is lower: 200 to 1000 nM for the first, 5000 to 100000 nM for the second. The first is the more potent here.

First: CC(C)(C)OC(=O)N1CCc2c(C(=O)Nc3c[nH]c4cc(F)c(F)cc34)csc2C1 [Compound 109, tert-butyl 3-((5,6-difluoro-1H-indol-3-yl)carbamoyl)-4.5-dihydrothieno[2,3-c]pyridine-6(7H)-carboxylate]
Second: CC(C)(C)OC(=O)N1Cc2n[nH]c(C(=O)Nc3c[nH]c4cc(F)c(F)cc34)c2C1 [Compound 110, tert-butyl 3-((5,6-difluoro-1H-indol-3-yl)carbamoyl)-4,6-dihydropyrrolo[3,4-c]pyrazole-5(1H)-carboxylate]
The EC50 of the first is lower: 200 to 1000 nM for the first, 1000 to 5000 nM for the second.

First: Cc1nc(C(=O)Nc2c[nH]c3cc(F)c(F)cc23)c2ccc(C(F)(F)F)cn12 [Compound 134]
Second: O=C(Nc1c[nH]c2cc(F)c(F)cc12)c1cn2cc(C(F)(F)F)ccc2n1 [Compound 113, N-(5,6-difluoro-1H-indol-3-yl)-6-(trifluoromethyl)imidazo[1,2-a]pyridine-2-carboxamide]
The EC50 of the first is higher: 5000 to 100000 nM for the first, 1000 to 5000 nM for the second.

First: CC1(C)CCc2c(C(=O)Nc3c[nH]c4cc(F)c(F)cc34)n[nH]c2C1 [Compound 156]
Second: O=C(Nc1c[nH]c2cc(F)c(F)cc12)C1Cc2[nH]nc(C(F)(F)F)c2C1 (stereo not shown) [Compound 115, N-(5,6-difluoro-1H-indol-3-yl)-3-(trifluoromethyl)-1H,4H,5H,6H-cyclopenta[c]pyrazole-5-carboxamide]
The EC50 of the first is lower: 1000 to 5000 nM for the first, 5000 to 100000 nM for the second. The first is the more potent here.

First: O=C(Nc1c[nH]c2cc(F)c(F)cc12)c1cccc2c1cnn2CCC(F)(F)F [Compound 138]
Second: O=C(Nc1c[nH]c2cc(F)c(F)cc12)c1cccc2nn(CCC(F)(F)F)cc12 [Compound 137]
The EC50 of the first is higher: 1000 to 5000 nM for the first, 200 to 1000 nM for the second.

First: O=C(Nc1c[nH]c2cc(F)c(F)cc12)c1cnc2cc(OCC(F)(F)F)ccn12 [Compound 150]
Second: O=C(Nc1c[nH]c2cc(F)c(F)cc12)c1cn2c(n1)CCC(C(F)(F)F)C2 (stereo not shown) [Compound 120, N-(5,6-difluoro-1H-indol-3-yl)-6-(trifluoromethyl)-5,6,7,8-tetrahydroimidazo[1,2-a]pyridine-2-carboxamide]
The EC50 of the first is lower: 40 to 200 nM for the first, 5000 to 100000 nM for the second.

First: O=C(Nc1c[nH]c2ccc(Cl)cc12)c1n[nH]c2cc(N3CCN(CC(F)(F)F)CC3)ccc12 [Compound 144]
Second: CC(C)(C)OC(=O)N1CCc2c(C(=O)Nc3c[nH]c4cc(F)c(F)cc34)ncn2CC1 [Compound 117, tert-butyl 1-[(5,6-difluoro-1H-indol-3-yl)carbamoyl]-5H,6H,7H,8H,9H-imidazo[1,5-d][1,4]diazepine-7-carboxylate]
The EC50 of the first is lower: 40 to 200 nM for the first, 5000 to 100000 nM for the second.

For `O=C(Nc1c[nH]c2cc(F)c(F)cc12)c1n[nH]c2cc(NCC(F)(F)F)ccc12` [Compound 126], the EC50 was 40 to 200 nM and 200 to 1000 nM.

Same assay, conditions: hSTING EC50, THP1-Dual KO-IFNAR2 cells; 2′3′cGAMP 15 μM final, Lipofectamine 2000; 24 h; luciferase reporter activity

`O=C(Nc1c[nH]c2cc(F)c(F)cc12)c1nn(CCC(F)(F)F)c2ccccc12` [Compound 103] and `O=C(Nc1c[nH]c2cc(F)c(F)cc12)c1nn(Cc2ccc(C(F)(F)F)cc2)c2ccccc12` [Compound 106, N-(5,6-difluoro-1H-indol-3-yl)-1-[[4-(trifluoromethyl)phenyl]methyl]indazole-3-carboxamide] fall in the same range of EC50: 200 to 1000 nM for the first, 200 to 1000 nM for the second.
